How the values were obtained:
[1] = system: Male Wiga Wistar rats; assay: Reversal of LY-404039-induced decrease of palpebral opening in apomorphine-challenged rats; type: in vivo, rat; details: rats, route PO (route cell empty for Co. 88 and 84); for ED50: Rattus norvegicus, read-out: ED50 APO LY-404039 (Reversal of LY-404039-induced decrease of palpebral opening in apomorphine challenged rats)
Method: 1) Reversal of LY-404039-Induced Decrease of Palpebral Opening in Apomorphine-Challenged Rats.
Male Wiga Wistar rats (Crl:WI; Charles River Germany; 220±40 g) were housed under standard laboratory conditions (21±2° C.; 50-65% relative humidity; light-dark cycle set at 12 h; lights on at 6.00 h) and fasted overnight prior to the start of the experiments (tap water remained available ad libitum). During the test period, they were housed in individual cages. Palpebral opening was scored every 5 min over the first hour after injection of apomorphine (1.0 mg/kg, i.v.) in animals either pretreated or not pretreated with LY-404039 (2.5 mg/kg, s.c.) at 1 h prior to the apomorphine injection. The animals were also pretreated with test compound or solvent at a predefined interval before apomorphine challenge. The score system was: (5) exophthalmos, (4) wide open, (3) open for three-quarters, (2) half open, (1) open for one-quarter, (0) closed. The scores for palpebral opening were cumulated over the 60-min observation period.

[2] = molecular target: human mGlu2 receptor (Homo sapiens, UniProt Q14416); assay: [35S]GTPγS binding assay, mGluR2 negative allosteric modulation (membranes from CHO cells transfected with human mGlu2 receptor, glutamate ~EC80 60 μM); details: for IC50: GTPγS - hmGluR2 anGT pIC50, membranes with human mGlu2 receptor; for IC50 / GTPγS - hmGluR2 anGT pIC50: glutamate ~EC80 (60 μM), pIC50 = -log IC50 (M); for Emax: read-out: GTPγS - hmGluR2 anGT Emax, relative maximal effect: maximal % inhibition relative to the control glutamate response; for GTPγS - hmGluR2 anGT pIC50: membranes with human mGlu2 receptor; for GTPγS - hmGluR2 anGT Emax: relative maximal effect: maximal % inhibition relative to the control glutamate response;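 on all read-outs here: membranes preincubated 30 min at 30 °C with compound plus glutamate, then [35S]GTPγS (0.1 nM) incorporation measured over another 30 min at 30 °C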
Sequence of human mGlu2 receptor (Q14416 19-872): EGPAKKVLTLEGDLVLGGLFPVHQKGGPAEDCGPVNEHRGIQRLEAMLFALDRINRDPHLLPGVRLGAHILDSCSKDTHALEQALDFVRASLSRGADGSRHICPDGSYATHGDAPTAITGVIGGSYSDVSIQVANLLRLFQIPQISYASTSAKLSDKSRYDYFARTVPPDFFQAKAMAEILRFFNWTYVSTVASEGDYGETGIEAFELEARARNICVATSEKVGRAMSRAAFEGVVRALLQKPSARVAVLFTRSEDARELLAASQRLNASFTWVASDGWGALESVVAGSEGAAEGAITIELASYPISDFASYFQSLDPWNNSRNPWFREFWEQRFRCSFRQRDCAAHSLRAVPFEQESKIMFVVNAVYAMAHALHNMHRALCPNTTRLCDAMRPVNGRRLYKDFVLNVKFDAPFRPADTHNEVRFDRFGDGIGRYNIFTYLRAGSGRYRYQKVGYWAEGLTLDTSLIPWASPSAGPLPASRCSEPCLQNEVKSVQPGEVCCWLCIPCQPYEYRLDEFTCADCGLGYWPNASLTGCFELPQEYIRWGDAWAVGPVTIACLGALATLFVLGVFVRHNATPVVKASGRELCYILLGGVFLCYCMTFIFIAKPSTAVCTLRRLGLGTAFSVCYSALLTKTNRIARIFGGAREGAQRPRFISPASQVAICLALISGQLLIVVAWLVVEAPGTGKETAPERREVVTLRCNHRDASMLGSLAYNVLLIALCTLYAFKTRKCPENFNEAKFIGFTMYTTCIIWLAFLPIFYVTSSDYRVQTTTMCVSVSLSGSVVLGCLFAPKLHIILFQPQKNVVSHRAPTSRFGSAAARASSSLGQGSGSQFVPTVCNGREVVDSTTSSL

[3] = system: rats; assay: Reversal of the effect of the mGluR2 PAM JNJ-42153605-induced inhibition of scopolamine-induced hyperlocomotion; type: in vivo, rat; details: rats, route PO, criterion total distance >1500 cm; for ED50: Rattus norvegicus, read-out: ED50 SCOP JNJ-42153605 (Reversal of the effect of JNJ 42153605 on scopolamine-induced hyperlocomotion)
Method: 2) Reversal of the Effect of the mGluR2 PAM JNJ-42153605-Induced Inhibition of Scopolamine-Induced Hyperlocomotion
Motor activity was measured in microprocessor-based motor activity arenas (closed gray PVC cylinders with a height of 39 cm and a diameter of 31 cm). Each arena was placed on an infrared LED (8×8 LEDs) lit box (white PVC squared box; 40×40 cm^2; height 12.5 cm. An infrared-sensitive tube camera and a white light source were mounted to the ceiling above the observation chamber to track the animal. The total distance traveled (cm) was recorded and analyzed using the Noldus Ethovision XT Video Tracking System (Version 7.0.418; Noldus, Wageningen, The Netherlands). The intensity of the light within the activity cages (measured in the centre at the level of the floor) ranged between 4 and 8 LUX.
The rats were pretreated with test compound or vehicle at 60 min before the start of the activity recordings and placed into individual cages. The rats were challenged with JNJ-42153605 (3-(cyclopropylmethyl)-7-(4-phenylpiperidin-1-yl)-8-(trifluoromethyl)[1,2,4]triazolo[4,3-a]pyridine; WO2010/130424; Cid et al. J. Med. Chem. 2012, 55, 8770-8789) (20 mg/kg, i.v.) 30 min before the start of the activity recording combined with scopolamine (0.16 mg/kg, i.v.) just before the start of the activity measurements. Immediately after the injection of scopolamine, the rats were placed into the activity monitors and total distance traveled over the first 30 min was measured.
For reversal of the inhibitory effect of JNJ-42153605 on the scopolamine-induced hyperlocomotion, the following all-or-none criteria were adopted: (1) reversal: total distance >1500 cm.

[4] = system: Wiga rats; assay: Induction of mydriasis (pupil diameter, test 1 and test 2); type: in vivo, rat; details: route PO, pupil diameter >25 units, maximum over 1, 2 or 3 h post-administration; for ED50: Rattus norvegicus, read-out: ED50 MYD Test 2 (Induction of mydriasis)
Method: 3) Induction of Mydriasis
The pupil diameter of Wiga rats was measured with a microscopic micrometer (1 unit=1/24 mm). Criteria for drug-induced effects: pupil diameter >25 units for mydriasis (in controls: 1.9%) 1 h post-administration of the test compound (test 1) or 1, 2 or 3 h post-administration of the test compound (test 2, wherein the maximum pupil diameter over the full 3 h period is reported).

Structure (SMILES) | melting point [°C] | ED50 [1] [mg/kg] | IC50 [2] [M] | Emax [2] [%] | ED50 [3] [mg/kg] | ED50 MYD Test 2 (Induction of mydriasis) [4] [mg/kg] | GTPγS - hmGluR2 anGT pIC50 [2] | GTPγS - hmGluR2 anGT Emax [2] [%] | ED50 SCOP JNJ-42153605 (Reversal of the effect of JNJ 42153605 on scopolamine-induced hyperlocomotion) [3] [mg/kg] | ED50 [4] [mg/kg] | ED50 APO LY-404039 (Reversal of LY-404039-induced decrease of palpebral opening in apomorphine challenged rats) [1] [mg/kg]
Cc1ccncc1NC(=O)c1cnn2c1C(=O)N(c1ccc(C(F)(F)F)cc1)C[C@@H]2C [compound 14] | 249.5 | 0.13 | 2.45e-09 | 109 | 0.13 |  |  |  |  |  | 
C[C@H]1CN(c2ccc(C(F)(F)F)c(F)c2)C(=O)c2c(C(=O)Nc3ccccn3)cnn21 [compound 20] | 199.2 | > 2.5 | 1.07e-08 | 113 | > 2.5 |  |  |  |  |  | 
C[C@H]1CN(c2ccc(C(F)(F)F)c(F)c2)C(=O)c2c(C(=O)Nc3cccnc3)cnn21 [compound 21] |  |  |  |  |  | 7.9 | 8.72 | 108 | 0.32 |  | 
C[C@H]1CN(c2ccc(Cl)c(Cl)c2)C(=O)c2c(C(=O)Nc3ccccn3)cnn21 [compound 25] | 258.4 | > 10 | 3.09e-09 | 112 | > 2.5 |  |  |  |  |  | 
C[C@H]1CN(c2ccc(Cl)c(Cl)c2)C(=O)c2c(C(=O)Nc3cccnc3)cnn21 [compound 26] |  |  |  |  |  | 5 | 9.08 | 107 | 0.32 |  | 
C[C@H]1CN(c2ccc(Cl)c(Cl)c2)C(=O)c2c(C(=O)Nc3cncc(F)c3)cnn21 [compound 27] |  |  |  |  |  | >10 | 9.09 | 108 | 0.32 |  | 
Cc1ccncc1NC(=O)c1cnn2c1C(=O)N(c1ccc(Cl)c(Cl)c1)C[C@@H]2C [compound 30] | 225 |  | 1.1e-09 | 111 | 0.51 |  |  |  |  | 3.1 | 
Cc1cc(N2C[C@H](C)n3ncc(C(=O)Nc4ccccn4)c3C2=O)ccc1C(F)(F)F [compound 35] | 227.3 | > 10 | 3.98e-09 | 114 | > 2.5 |  |  |  |  |  | 
Cc1cc(N2C[C@H](C)n3ncc(C(=O)Nc4cccnc4)c3C2=O)ccc1C(F)(F)F [compound 36, (7S)-7-Methyl-5-[3-methyl-4-(trifluoromethyl)phenyl]-4-oxo-N-(3-pyridyl)-6,7-dihydropyrazolo[1,5-a]pyrazine-3-carboxamide] | 156.85 |  | 8.51e-10 | 111 | 0.2 |  |  |  |  | 20 | 
Cc1cncc(NC(=O)c2cnn3c2C(=O)N(c2ccc(C(F)(F)F)c(C)c2)C[C@@H]3C)c1 [compound 37] | 202.8 | > 0.63 | 7.24e-10 | 108 | > 0.63 |  |  |  |  |  | 
Cc1ccncc1NC(=O)c1cnn2c1C(=O)N(c1ccc(C(F)(F)F)c(C)c1)C[C@@H]2C [compound 38] | 186.5 |  | 1.15e-09 | 108 | 0.2 |  |  |  |  | 2 | 
Cc1cc(N2C[C@H](C)n3ncc(C(=O)Nc4cncc(F)c4)c3C2=O)ccc1C(F)(F)F [compound 39] | 144.6 |  | 9.33e-10 | 112 | 0.32 |  |  |  |  | 5 | 
COc1cncc(NC(=O)c2cnn3c2C(=O)N(c2ccc(C(F)(F)F)c(C)c2)C[C@@H]3C)c1 [compound 40] | 194.8 | > 0.63 | 2.14e-09 | 111 | > 0.63 |  |  |  |  |  | 
C[C@H]1CN(c2ccc(Cl)cc2)C(=O)c2c(C(=O)Nc3cccnc3)cnn21 [compound 41] | 180 | 0.32 | 6.17e-09 | 106 | > 0.63 |  |  |  |  |  | 
C[C@H]1CN(c2ccc(C(F)(F)F)c(Cl)c2)C(=O)c2c(C(=O)Nc3ccccn3)cnn21 [compound 46] | 223 | 1.99 | 2.75e-09 | 113 | > 2.5 |  |  |  |  |  | 
C[C@H]1CN(c2ccc(C(F)(F)F)c(Cl)c2)C(=O)c2c(C(=O)Nc3cccnc3)cnn21 [compound 47] | 140.43 |  | 1.07e-09 | 109 | 0.5 |  |  |  |  | 32 | 
C[C@H]1CN(c2ccc(C(F)(F)F)cc2)C(=O)c2c(C(=O)Nc3cnccn3)cnn21 [compound 100] | 225 | 0.32 | 2.95e-09 | 119 | 0.2 |  |  |  |  |  | 
Cc1cc(NC(=O)c2cnn3c2C(=O)N(c2ccc(C(F)(F)F)cc2)C[C@@H]3C)cc(C)n1 [compound 101] |  |  |  |  |  | >10 | 8.57 | 118 | 0.5 |  | 0.79
Cc1cc(NC(=O)c2cnn3c2C(=O)N(c2ccc(C(F)(F)F)c(Cl)c2)C[C@@H]3C)ccn1 [compound 109] |  |  |  |  |  | 32 | 8.91 | 109 | 0.32 |  | 
C[C@H]1CN(c2ccc(Cl)c(Cl)c2)C(=O)c2c(C(=O)Nc3cnccn3)cnn21 [compound 116] | 213.63 |  | 1.35e-09 | 109 | 0.05 |  |  |  |  | 5 | 
COc1cc(N2C[C@H](C)n3ncc(C(=O)Nc4cncc(F)c4)c3C2=O)ccc1C(F)(F)F [compound 117] | 259 |  | 3.72e-09 | 105 | 0.51 |  |  |  |  | > 10 | 
Cc1c(F)cncc1NC(=O)c1cnn2c1C(=O)N(c1ccc(C(F)(F)F)cc1)C[C@@H]2C [compound 124, (7S)—N-(5-Fluoro-4-methyl-3-pyridyl)-7-methyl-4-oxo-5-[4-(trifluoromethyl)phenyl]-6,7-dihydropyrazolo[1,5-a]pyrazine-3-carboxamide] | 194.5 |  | 2.24e-09 | 107 | 0.2 |  |  |  |  | > 40 | 
Cc1cncc(NC(=O)c2cnn3c2C(=O)N(c2ccc(C(F)(F)F)c(Cl)c2)C[C@@H]3C)c1C [compound 126] | 229.17 | > 0.63 | 1.17e-09 | 108 | > 0.63 |  |  |  |  |  | 
COc1cncc(NC(=O)c2cnn3c2C(=O)N(c2ccc(C(F)(F)F)cc2)C[C@@H]3C)c1 [compound 144] | 197.8 | 1.99 | 4.79e-09 | 114 | 1.01 |  |  |  |  |  | 
C[C@H]1CN(c2ccc(Cl)cc2)C(=O)c2c(C(=O)Nc3cnccn3)cnn21 [compound 162] | 250.1 |  | 6.76e-09 | 109 | 0.13 |  |  |  |  | > 10 | 
